Results from patent publication US11883407B2, “Medicament for the treatment of chronic cough” (Shionogi & Co., Ltd., priority 2018, dated 2024).
Read-outs that look alike come from different tables or passages of the source.

Tests used:
[1] = system: nerve fibers of the ganglion inferius; settings: guinea pig lung tissue; cited from earlier work
[2] = human, in vivo; cited from earlier work
[3] = cited from earlier work
[4] = system: pulmonary vagal afferent C and A fibers; settings: cited from earlier work
[5] = system: patients with chronic cough; settings: cited from earlier work
[6] = Study MK-7264-012 (NCT02612610) of Gefapixant: taste-related adverse events; assay type: in vivo, human; settings: 50 mg; difference between treatment groups
Description: In addition, a large number of clinical trial protocols for AF-219 (MK-7264, Gefapixant) and their results are recorded on ClinicalTrials.gov. For example, the results of a trial in which 253 of the 367 candidate patients were randomly assigned to a twice daily oral administration group of a placebo, 7.5 mg, 20 mg or 50 mg of AF-219 to confirm the therapeutic effect after 12 weeks, have been published under the identification number NCT02612610. Among the trial results, it was published that as one of the adverse events, for example, dysgeusia was confirmed in each dose group: 9.52% (7.5 mg administration group, 6 out of 63 cases), 33.33% (20 mg administration group, 21 out of 63 cases) and 47.62% (50 mg administration group, 30 out of 63 cases). […]
Based on the above results, for the proportion of subjects who experienced any of the taste-related adverse events, the study design of each study was taken into account, and as the difference between each investigational drug and placebo, the mean of differences of incidence in the same subject between the treatments and the two-sided 95% confidence interval thereof were calculated for Test Example 6, and the difference of incidence between the Gefapixant 50 mg treatment group and the placebo treatment group and the two-sided 95% confidence interval thereof were calculated for the study MK-7264-012.

[7] = cited from earlier work; for dysgeusia as adverse event: 12 weeks
[8] = 50 mg twice daily, 63 subjects in safety analysis

In the case of COc1cc(C(C)C)c(Oc2cnc(N)nc2N)cc1I [AF-353], the “action potential in nerve fibers of the ganglion inferius evoked by ATP or αβ-methylene ATP” value [1] is given as “almost completely suppressed”.

For Cc1cnc(-c2cc(O[C@@H]3CCOC3)cc(C(=O)N[C@H](C)c3cnc(C(F)(F)F)nc3)c2)s1 [BAY-1817080], the “number of coughs per 24 hours” value [2] is listed as “a reduction in the number of coughs per 24 hours was confirmed”.

For CNC(=O)c1cc(F)c(-c2nc3cc(C)ccn3c2C[C@H]2CN(C(=O)OC)CCO2)c(F)c1 [BLU-5937], the “taste changes, subjects” value ([3]; 100 mg (n=16)) is given as 6.3%, the “partial taste loss, subjects” value ([3]; 400 mg (n=16)) is given as 6.25% and the “taste changes, subjects” value ([3]; 400 mg (n=16)) is given as 37.5%. For the same compound, the “partial taste loss, subjects” value ([3]; 800 mg (n=8)) was 12.5%, the “taste changes, subjects” value ([3]; 800 mg (n=8)) was 62.5% and the “taste changes, subjects” value ([3]; 1200 mg (n=8)) was 25%. The “course of taste-related adverse events” value ([3]; single and repeated administration) was “all taste-related adverse events were transient and sporadic”.

For O=C(O)c1cc(C(=O)O)c(C(=O)N(Cc2cccc(Oc3ccccc3)c2)[C@H]2CCCc3ccccc32)cc1C(=O)O [Compound A-317491, (5-({3-phenoxybenzyl)[(1S)-1,2,3,4-tetrahydro-1-naphthalenyl]amino}carbonyl)-1,2,4-benzenetricarboxylic acid], the “activity of pulmonary vagal afferent C and A fibers by α,βmATP” value [4] is listed as “inhibits activity of the pulmonary vagal afferent C and A fibers”.

In the case of COc1cc(C(C)C)c(Oc2cnc(N)nc2N)cc1S(N)(=O)=O [Gefapixant], the “hypogeusia as adverse event” value ([5]; 13 out of 24 cases) is listed as 54%, the “dysgeusia as adverse event” value ([5]; 21 out of 24 cases) is listed as 88% and the “participants who discontinued the trial due to a taste disturbance (hypogeusia or dysgeusia)” value ([5]; human, in vivo) is listed as 6. For the same compound, the taste-related disorder ([5]; patients administered with AF-219) was “all patients developed some kind of taste-related disorder”, the “reduction of the frequency of daytime cough compared to the placebo group” value ([5]; patients with chronic cough) was 75% and the “Difference of incidence of any of the taste-related adverse events (drug − placebo)” value [6] was 74.6%. For the same compound, the “dysgeusia as adverse event” value ([7]; 7.5 mg twice daily, 6 out of 63 cases) was 9.52%, the “dysgeusia as adverse event” value ([7]; 20 mg twice daily, 21 out of 63 cases) was 33.33% and the “dysgeusia as adverse event” value ([7]; 50 mg twice daily, 30 out of 63 cases) was 47.62%. For the same compound, the “Ageusia, number of subjects and incidence” value [7, 8] was 13 (20.6%), the “Any of taste-related adverse events, number of subjects and incidence” value [7, 8] was 51 (81.0%) and the “Dysgeusia, number of subjects and incidence” value [7, 8] was 30 (47.6%). The “Hypogeusia, number of subjects and incidence” value [7, 8] was 15 (23.8%).

In the case of TNP-ATP, the “action potential in nerve fibers of the ganglion inferius evoked by ATP or αβ-methylene ATP” value [1] is given as “almost completely suppressed”.
